Numbers after ± are expanded uncertainties.
Settings: Crystal

mass density (293 K, 101.33 kPa, Pycnometric method): 1536 ± 5 kg/m3
Normal melting temperature (DTA): 148.56 ± 0.5 °C
Structure (SMILES): Cc1ncc(COP(=O)(O)O)c(C=O)c1O.O [pyridoxal 5-phosphate hydrate]
